Data published in patent US20240024262A1, “USE OF VALERIC ACID IN PREPARATION OF DRUG FOR PREVENTING AND TREATING DIABETES” (Harbin Medical University, priority 2022, published 2024).

Key:
[1] = test system: db/db mouse islet tissues; assay: Histopathology of pancreatic tissues of db/db mice (HE, immunofluorescence); format: in vivo
Protocol: During the subsequent test, in order to observe pathological morphologies of animal tissues, paraffin sections of mouse tissues were made and subjected to HE staining, immunohistochemical staining and immunofluorescence staining. […] Histopathological examination is also performed on the pancreatic tissues of db/db mice.

[2] = test system: 3-phosphoinositide dependent protein kinase 1 (Pdpk1); assay: TMT proteomic detection of pancreatic tissues, HFD+VA vs HFD+PBS; format: in vivo, mice; conditions: TMT proteomics
Protocol: During the subsequent test, in order to observe pathological morphologies of animal tissues, paraffin sections of mouse tissues were made and subjected to HE staining, immunohistochemical staining and immunofluorescence staining. Also, mouse pancreatic tail tissues in a valeric acid intervention group and a control group were taken out from the −80° C. refrigerator and underwent TMT labeled quantitative proteome detection of the animal tissues, and differential proteins were subjected to a Western Blot test and a real-time fluorescence quantitative polymerase chain reaction (QRT PCR) test for the animal tissues to verify test results.
Through functional annotation of GO and KEGG databases, metabolic pathways such as energy and glycolipid metabolism, glycogen synthesis, redox and phosphorylation are enriched (FIG. 19).

[3] = test system: Leptin receptor gene deficient db/db mice; assay: Type 2 diabetes model db/db mice: food intake, body weight, blood glucose-related indexes; format: in vivo
Protocol: The following drugs are taken as comparative examples: • 1. Comparative example where an existing drug serves as a positive control • (1) High-fat fed C57BL6/J mice • Sodium butyrate gavage intervention group: 75.0 mg/kg • (2) Type 2 diabetes model db/db mice • Sodium butyrate gavage intervention group: 75.0 mg/kg • Harmine gavage intervention group: 10.0 mg/kg • Metformin gavage intervention group: 100.0 mg/kg • (3) Cell line of mouse insulinoma islet β cells (Beta-TC-6) • Sodium butyrate intervention group: 1.0 mmol/L • Harmine intervention group: 10.0 μmmol/L • (4) Mouse islet β primary cell • Sodium butyrate intervention group: 1.0 mmol/L • Harmine intervention group: 10.0 μmmol/L • 2. A control test is taken as a comparative example • (1) High-fat fed C57BL6/J mice • Ordinary feed feeding group, and high-fat feed PBS gavage group • (2) Type 2 diabetes model db/db mice • Control feeding group and PBS gavage group • (3) Cell line of mouse insulinoma islet β cells (Beta-TC-6) • Blank control group, and palmitic acid (PA) intervention negative control group • (4) Mouse islet β primary cell • Blank control group, and PA intervention negative control group • Results are as follows:
(II) In the animal test, the therapeutic effect of the valeric acid on diabetes is observed by using Leptin receptor gene deficient db/db mice (purchased from Nanjing Junke Biotechnology Co., Ltd.) as test subjects.

[4] = Serum tumor markers CEA and CA19-9 by ECLIA in high-fat fed mice; format: in vivo
Description: Finally, to detect whether tumor invasion was caused during intervention or not, contents of a carbohydrate antigen (CA 19-9) and a carcinoembryonic antigen (CEA) in mouse serum were detected and compared by using automatic electrochemiluminescence immunoassay system Cobas® 8000 (Roche, USA) and electrochemiluminescence immunoassay (ECLIA).

## CCCCC(=O)O [valeric acid]
[1]; HE staining
  islet area: increased significantly
  islet cells: increased significantly
[1]; Ki67/insulin staining
  proportion of Ki67 (+): increased significantly
[1]; immunofluorescence
  ratio of the insulin to glucagon: increased significantly
[2]
  expression level of Pdpk1 in the mouse pancreatic tissues: significantly increased
[3]; compared with metformin and Harmine groups
  area under the OGTT curve: smallest
[3]; compared with the PBS control group
  decrease of fasting blood glucose: ~10 mmol/L
[3]; comparison among groups / vs PBS control group
  insulin secretion: best
[3]; vs PBS control group
  weights: decreased significantly
[4]; HF+VA mouse serum
  CA19-9 in mouse serum: < 0.600 U/mL
  CEA in mouse serum: < 0.200 U/mL
[4]; from CEA and CA19-9 serum markers
  cancer invasion: does not occur
